Data taken from PubChem BioAssay (NCI).
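Growth conditions: 96-well plates. Treatment: test compound, 48 hours, 5 concentrations. Analysis: linear interpolation between bracketing concentrations; unreached endpoints set to highest concentration. At the TGI there is no net growth.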

Key:
Experiment in all cases: NCI tumour cell line growth inhibition, 48 h
SF-539 CNS = system: SF-539 CNS
SNB-75 CNS = system: SNB-75 CNS
SN12C renal = system: SN12C renal
HCC-2998 colon = system: HCC-2998 colon
SK-MEL-5 melanoma = system: SK-MEL-5 melanoma
U251 CNS = system: U251 CNS
UACC-257 melanoma = system: UACC-257 melanoma
NCI/ADR-RES ovarian = system: NCI/ADR-RES ovarian
HOP-92 NSCLC = system: HOP-92 NSCLC
K-562 leukemia = system: K-562 leukemia
HCT-15 colon = system: HCT-15 colon
UACC-62 melanoma = system: UACC-62 melanoma
SF-268 CNS = system: SF-268 CNS
SF-295 CNS = system: SF-295 CNS
MDA-MB-231 breast = system: MDA-MB-231 breast
OVCAR-3 ovarian = system: OVCAR-3 ovarian
HS 578T breast = system: HS 578T breast
HT29 colon = system: HT29 colon
CAKI-1 renal = system: CAKI-1 renal
UO-31 renal = system: UO-31 renal
PC-3 prostate = system: PC-3 prostate
SR leukemia = system: SR leukemia
DU-145 prostate = system: DU-145 prostate
OVCAR-5 ovarian = system: OVCAR-5 ovarian
OVCAR-4 ovarian = system: OVCAR-4 ovarian
LOX IMVI melanoma = system: LOX IMVI melanoma
MCF7 breast = system: MCF7 breast
SK-OV-3 ovarian = system: SK-OV-3 ovarian
BT-549 breast = system: BT-549 breast
A498 renal = system: A498 renal
T-47D breast = system: T-47D breast
NCI-H23 lung = system: NCI-H23 lung
TK-10 renal = system: TK-10 renal
SK-MEL-2 melanoma = system: SK-MEL-2 melanoma
HOP-62 NSCLC = system: HOP-62 NSCLC
HCT-116 colon = system: HCT-116 colon
NCI-H460 lung = system: NCI-H460 lung
MDA-MB-435 = system: MDA-MB-435
A549 NSCLC = system: A549 NSCLC
KM12 colon = system: KM12 colon
SK-MEL-28 melanoma = system: SK-MEL-28 melanoma
MALME-3M melanoma = system: MALME-3M melanoma
MOLT-4 leukemia = system: MOLT-4 leukemia
RPMI-8226 leukemia = system: RPMI-8226 leukemia
IGROV1 ovarian = system: IGROV1 ovarian
M14 melanoma = system: M14 melanoma
MDA-N = system: MDA-N
RXF 393 renal = system: RXF 393 renal
NCI-H522 lung = system: NCI-H522 lung
SW-620 colon = system: SW-620 colon
COLO 205 colon = system: COLO 205 colon
OVCAR-8 ovarian = system: OVCAR-8 ovarian
ACHN renal = system: ACHN renal
SNB-19 CNS = system: SNB-19 CNS
EKVX NSCLC = system: EKVX NSCLC
786-0 renal = system: 786-0 renal
HL-60(TB) leukemia = system: HL-60(TB) leukemia
NCI-H226 lung = system: NCI-H226 lung
CCRF-CEM leukemia = system: CCRF-CEM leukemia

C[C@H](OC(=O)/C=C/c1ccc(O)c(O)c1)[C@H](C)OC(=O)/C=C/c1ccc(O)c(O)c1 gave a TGI (SF-539 CNS) of over 100 µM, a TGI (SNB-75 CNS) of 39.3 µM and a TGI (SN12C renal) of 34 µM. For the same compound, the TGI (HCC-2998 colon) was 33.4 µM, the TGI (SK-MEL-5 melanoma) was 21.5 µM and the TGI (U251 CNS) was over 100 µM. For the same compound, the TGI (UACC-257 melanoma) was 29.7 µM, the TGI (NCI/ADR-RES ovarian) was 63.1 µM and the TGI (HOP-92 NSCLC) was 38.2 µM. For the same compound, the TGI (K-562 leukemia) was over 100 µM, the TGI (HCT-15 colon) was 25.9 µM and the TGI (UACC-62 melanoma) was 12.6 µM. It also gave a TGI (SF-268 CNS) of 34.5 µM, a TGI (SF-295 CNS) of 19.8 µM and a TGI (MDA-MB-231 breast) of 35.9 µM. It also gave a TGI (OVCAR-3 ovarian) of 14.8 µM, a TGI (HS 578T breast) of over 100 µM and a TGI (HT29 colon) of over 100 µM. For the same compound, the TGI (CAKI-1 renal) was over 100 µM, the TGI (UO-31 renal) was 21.9 µM and the TGI (PC-3 prostate) was over 100 µM. For the same compound, the TGI (SR leukemia) was over 100 µM, the TGI (DU-145 prostate) was 39.3 µM and the TGI (OVCAR-5 ovarian) was 33.1 µM. The TGI (OVCAR-4 ovarian) was over 100 µM, the TGI (LOX IMVI melanoma) was 22.6 µM and the TGI (MCF7 breast) was 70.7 µM. It also gave a TGI (SK-OV-3 ovarian) of 32.3 µM, a TGI (BT-549 breast) of 24.1 µM and a TGI (A498 renal) of 51.7 µM. It also gave a TGI (T-47D breast) of over 100 µM, a TGI (NCI-H23 lung) of 18 µM and a TGI (TK-10 renal) of 34.2 µM. It also gave a TGI (SK-MEL-2 melanoma) of 50.3 µM, a TGI (HOP-62 NSCLC) of 26.6 µM and a TGI (HCT-116 colon) of 23.3 µM. It also gave a TGI (NCI-H460 lung) of over 100 µM, a TGI (MDA-MB-435) of 77.3 µM and a TGI (A549 NSCLC) of over 100 µM. It also gave a TGI (KM12 colon) of over 100 µM, a TGI (SK-MEL-28 melanoma) of 28.6 µM and a TGI (MALME-3M melanoma) of 31.9 µM. The TGI (MOLT-4 leukemia) was over 100 µM, the TGI (RPMI-8226 leukemia) was over 100 µM and the TGI (IGROV1 ovarian) was 31.5 µM. It also gave a TGI (M14 melanoma) of 23.5 µM, a TGI (MDA-N) of 18.4 µM and a TGI (RXF 393 renal) of 28.5 µM. It also gave a TGI (NCI-H522 lung) of 35.1 µM, a TGI (SW-620 colon) of 17.8 µM and a TGI (COLO 205 colon) of 50.3 µM. The TGI (OVCAR-8 ovarian) was 26.2 µM, the TGI (ACHN renal) was 30.5 µM and the TGI (SNB-19 CNS) was 25.6 µM. For the same compound, the TGI (EKVX NSCLC) was 33 µM and the TGI (786-0 renal) was 20 µM.
Work on COc1ccc(OC)c2c1-c1nnnn1CCC2(C)C yielded a TGI (SF-539 CNS) of over 100 µM, a TGI (SNB-75 CNS) of over 100 µM and a TGI (SN12C renal) of over 100 µM. For the same compound, the TGI (HCC-2998 colon) was over 100 µM, the TGI (U251 CNS) was over 100 µM and the TGI (UACC-257 melanoma) was over 100 µM. For the same compound, the TGI (NCI/ADR-RES ovarian) was over 100 µM, the TGI (HOP-92 NSCLC) was over 100 µM and the TGI (K-562 leukemia) was over 100 µM. It also gave a TGI (HL-60(TB) leukemia) of over 100 µM, a TGI (HCT-15 colon) of over 100 µM and a TGI (UACC-62 melanoma) of over 100 µM. For the same compound, the TGI (SF-268 CNS) was over 100 µM, the TGI (SF-295 CNS) was over 100 µM and the TGI (MDA-MB-231 breast) was over 100 µM. The TGI (OVCAR-3 ovarian) was over 100 µM, the TGI (HS 578T breast) was over 100 µM and the TGI (HT29 colon) was over 100 µM. The TGI (UO-31 renal) was over 100 µM, the TGI (PC-3 prostate) was over 100 µM and the TGI (SR leukemia) was over 100 µM. It also gave a TGI (DU-145 prostate) of over 100 µM, a TGI (OVCAR-5 ovarian) of over 100 µM and a TGI (OVCAR-4 ovarian) of over 100 µM. For the same compound, the TGI (LOX IMVI melanoma) was over 100 µM, the TGI (MCF7 breast) was over 100 µM and the TGI (SK-OV-3 ovarian) was over 100 µM. It also gave a TGI (BT-549 breast) of over 100 µM, a TGI (A498 renal) of over 100 µM and a TGI (T-47D breast) of over 100 µM. The TGI (NCI-H23 lung) was over 100 µM, the TGI (TK-10 renal) was over 100 µM and the TGI (SK-MEL-2 melanoma) was over 100 µM. For the same compound, the TGI (HOP-62 NSCLC) was over 100 µM, the TGI (HCT-116 colon) was over 100 µM and the TGI (NCI-H226 lung) was over 100 µM. The TGI (NCI-H460 lung) was over 100 µM, the TGI (MDA-MB-435) was over 100 µM and the TGI (KM12 colon) was over 100 µM. For the same compound, the TGI (SK-MEL-28 melanoma) was over 100 µM, the TGI (MALME-3M melanoma) was over 100 µM and the TGI (MOLT-4 leukemia) was over 100 µM. The TGI (RPMI-8226 leukemia) was over 100 µM, the TGI (IGROV1 ovarian) was over 100 µM and the TGI (M14 melanoma) was over 100 µM. For the same compound, the TGI (MDA-N) was over 100 µM, the TGI (RXF 393 renal) was over 100 µM and the TGI (NCI-H522 lung) was over 100 µM. For the same compound, the TGI (SW-620 colon) was over 100 µM, the TGI (COLO 205 colon) was over 100 µM and the TGI (OVCAR-8 ovarian) was over 100 µM. For the same compound, the TGI (ACHN renal) was over 100 µM, the TGI (CCRF-CEM leukemia) was over 100 µM and the TGI (SNB-19 CNS) was over 100 µM. For the same compound, the TGI (EKVX NSCLC) was over 100 µM and the TGI (786-0 renal) was over 100 µM.
With O=C(O)COc1cccc2ccccc(=O)c12 the TGI (SF-539 CNS) was over 100 µM, the TGI (SN12C renal) was over 100 µM and the TGI (HCC-2998 colon) was over 100 µM. The TGI (SK-MEL-5 melanoma) was over 100 µM, the TGI (U251 CNS) was over 100 µM and the TGI (UACC-257 melanoma) was over 100 µM. For the same compound, the TGI (NCI/ADR-RES ovarian) was over 100 µM, the TGI (HOP-92 NSCLC) was over 100 µM and the TGI (K-562 leukemia) was over 100 µM. For the same compound, the TGI (HL-60(TB) leukemia) was over 100 µM, the TGI (HCT-15 colon) was over 100 µM and the TGI (UACC-62 melanoma) was over 100 µM. It also gave a TGI (SF-268 CNS) of over 100 µM, a TGI (SF-295 CNS) of over 100 µM and a TGI (MDA-MB-231 breast) of over 100 µM. For the same compound, the TGI (OVCAR-3 ovarian) was over 100 µM, the TGI (HS 578T breast) was over 100 µM and the TGI (HT29 colon) was over 100 µM. The TGI (CAKI-1 renal) was over 100 µM, the TGI (UO-31 renal) was over 100 µM and the TGI (PC-3 prostate) was over 100 µM. For the same compound, the TGI (SR leukemia) was over 100 µM, the TGI (DU-145 prostate) was over 100 µM and the TGI (OVCAR-5 ovarian) was over 100 µM. It also gave a TGI (OVCAR-4 ovarian) of over 100 µM, a TGI (LOX IMVI melanoma) of over 100 µM and a TGI (MCF7 breast) of over 100 µM. The TGI (SK-OV-3 ovarian) was over 100 µM, the TGI (BT-549 breast) was over 100 µM and the TGI (A498 renal) was over 100 µM. For the same compound, the TGI (T-47D breast) was over 100 µM, the TGI (NCI-H23 lung) was over 100 µM and the TGI (TK-10 renal) was over 100 µM. The TGI (SK-MEL-2 melanoma) was over 100 µM, the TGI (HOP-62 NSCLC) was over 100 µM and the TGI (HCT-116 colon) was over 100 µM. For the same compound, the TGI (NCI-H226 lung) was over 100 µM, the TGI (NCI-H460 lung) was over 100 µM and the TGI (MDA-MB-435) was over 100 µM. For the same compound, the TGI (A549 NSCLC) was over 100 µM, the TGI (KM12 colon) was over 100 µM and the TGI (SK-MEL-28 melanoma) was over 100 µM. For the same compound, the TGI (MALME-3M melanoma) was over 100 µM, the TGI (MOLT-4 leukemia) was over 100 µM and the TGI (IGROV1 ovarian) was over 100 µM. It also gave a TGI (M14 melanoma) of over 100 µM, a TGI (MDA-N) of over 100 µM and a TGI (RXF 393 renal) of over 100 µM. The TGI (NCI-H522 lung) was over 100 µM, the TGI (SW-620 colon) was over 100 µM and the TGI (COLO 205 colon) was over 100 µM. It also gave a TGI (OVCAR-8 ovarian) of over 100 µM, a TGI (ACHN renal) of over 100 µM and a TGI (CCRF-CEM leukemia) of over 100 µM. It also gave a TGI (SNB-19 CNS) of over 100 µM, a TGI (EKVX NSCLC) of over 100 µM and a TGI (786-0 renal) of over 100 µM.
